Measurements taken from patent US8178687B2, “Derivatives of pyrroloindole which are inhibitors of Hsp90, compositions containing same, and use thereof” (Sanofi-Aventis, priority 2009, dated 2012).

The compounds below were run against Hsp82 (Saccharomyces cerevisiae, UniProt P02829) (assay: Hsp82 ATPase activity, pyruvate kinase/lactate dehydrogenase enzymatic coupling method (NADH absorbance at 340 nm)). Details: 1 μM Hsp82, 250 μM ATP, 37° C., PK/LDH coupled, initial rate.
Format: biochemical
Description: The formation of ADP due to the ATPase activity of Hsp82 was used to develop another method for evaluating the enzymatic activity of this enzyme by application of an enzymatic coupling system involving pyruvate kinase (PK) and lactate dehydrogenase (LDH). In this kinetic-type spectrophotometric method, PK catalyses the formation of ATP and of pyruvate from phosphoenol pyruvate (PEP) and the ADP produced by Hsp82. The pyruvate formed, which is a substrate for LDH, is subsequently converted to lactate in the presence of NADH. In this case, the decrease in NADH concentration, measured through the decrease in absorbance at the wavelength of 340 nm, is proportional to the concentration of ADP produced by Hsp82.
The products tested are incubated in a reaction volume of 100 μl of buffer composed of 100 mM Hepes-NaOH (pH 7.5), 5 mM MgCl2, 1 mM DTT, 150 mM KCl, 0.3 mM NADH, 2.5 mM PEP and 250 μM ATP. This mixture is preincubated at 37° C. for 30 minutes before the addition of 3.77 units of LDH and 3.77 units of PK. The reaction is initiated by addition of the product to be evaluated, in varying concentrations, and of Hsp82, at the concentration of 1 μM. The enzymatic activity of Hsp82 is then measured continuously, in a microplate reader, at 37° C., at the wavelength of 340 nm. The initial rate of the reaction is obtained by measuring the slope of the tangent to the origin of the curve recorded. The enzymatic activity is expressed in μM of ADP formed per minute. The effect of the various products tested is expressed as capacity for inhibiting the ATPase activity according to the codification below: […]

Chain of Hsp82 (P02829 whole entry): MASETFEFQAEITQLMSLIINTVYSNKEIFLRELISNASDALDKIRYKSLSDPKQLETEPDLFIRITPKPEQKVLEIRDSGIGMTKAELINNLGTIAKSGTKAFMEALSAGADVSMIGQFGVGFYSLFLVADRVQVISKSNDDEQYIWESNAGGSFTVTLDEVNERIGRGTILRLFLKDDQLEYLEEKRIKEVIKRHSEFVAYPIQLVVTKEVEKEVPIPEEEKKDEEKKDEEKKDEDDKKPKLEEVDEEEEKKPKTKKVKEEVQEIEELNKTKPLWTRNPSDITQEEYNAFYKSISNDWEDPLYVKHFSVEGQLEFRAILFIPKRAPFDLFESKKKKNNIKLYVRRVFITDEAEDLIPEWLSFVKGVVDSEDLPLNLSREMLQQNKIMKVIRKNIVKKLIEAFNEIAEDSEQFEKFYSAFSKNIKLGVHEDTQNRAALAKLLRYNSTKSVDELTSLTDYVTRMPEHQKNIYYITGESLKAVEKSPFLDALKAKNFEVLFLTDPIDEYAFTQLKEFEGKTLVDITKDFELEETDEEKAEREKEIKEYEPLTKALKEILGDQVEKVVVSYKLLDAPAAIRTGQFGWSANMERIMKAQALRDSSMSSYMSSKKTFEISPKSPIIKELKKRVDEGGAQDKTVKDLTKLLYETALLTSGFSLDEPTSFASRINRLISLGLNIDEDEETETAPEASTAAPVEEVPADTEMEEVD

| IC50 [nM] | SMILES |
| --- | --- |
| < 1000 | O=C(NC1c2cccc(-c3nc4ccc(F)cc4[nH]3)c2-n2cccc21)c1ccnc2[nH]ccc12 (stereo not shown) [Example 1, 1H-pyrrolo[2,3-b]pyridine-4-carboxylic acid [5-(6-fluoro-1H-benzimidazol-2-yl)-9H-pyrrolo[1,2-a]indol-9-yl]amide] |
| 1000 to 10000 | O=C(NC1c2cccc(-c3cnc4ccccc4c3)c2-n2cccc21)c1ccnc2[nH]ccc12 (stereo not shown) [Example 2, 1H-pyrrolo[2,3-b]pyridine-4-carboxylic acid (5-quinolin-3-yl-9H-pyrrolo[1,2-a]indol-9-yl)amide] |
| < 1000 | O=C(NC1c2cccc(-c3nc4ccncc4[nH]3)c2-n2cccc21)c1ccnc2[nH]ccc12 (stereo not shown) [Example 3, 1H-pyrrolo[2,3-b]pyridine-4-carboxylic acid [5-(3H-imidazo[4,5-c]pyridin-2-yl)-9H-pyrrolo[1,2-a]indol-9-yl]amide] |
| 1000 to 10000 | O=C(NC1c2cccc(-c3nc4ccncc4[nH]3)c2-n2cccc21)c1cc(Cl)nc2[nH]ccc12 (stereo not shown) [Example 4, 6-chloro-1H-pyrrolo[2,3-b]pyridine-4-carboxylic acid [5-(3H-imidazo[4,5-c]pyridin-2-yl)-9H-pyrrolo[1,2-a]indol-9-yl]amide] |
